# Reference: ChEMBL document CHEMBL1201862, “PubChem BioAssay data set” (2004)
# Values joined by “and” are separate entries in the source; they are usually repeats but may differ in a detail not shown here. Identical values can stand only once.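 Grown in 96-well plates, cells were treated for 48 hours with each compound at five concentrations. Insufficient inhibition: endpoint recorded as highest concentration tested. GI50: concentration for 50% inhibition of growth.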 Active and inactive are the calls of the source. Cut-off read from the data, not from the text of the source: active = GI50 up to about 1.1 µM and inactive = higher. Non-standard residues stand in square brackets, D forms with d. Residues, ends and D or L forms follow the SMILES beside them. *: point of attachment. NMeF = CN[CH](Cc1ccccc1)C(=O)O; NMeV = CN[CH](C(=O)O)C(C)C; Boc = CC(C)(C)OC(=O)*; OBn = c1ccc(CO*)cc1
# Assays:
# Assay in all cases: NCI-60 cell line screen, 48 h
# UACC-62 = system: UACC-62
# COLO 205 = system: COLO 205
# NCI-H522 = system: NCI-H522
# M14 = system: M14
# SNB-78 = system: SNB-78
# OVCAR-5 = system: OVCAR-5
# KM-20L2 = system: KM-20L2
# SNB-75 = system: SNB-75
# SK-MEL-28 = system: SK-MEL-28
# UO-31 = system: UO-31
# KM12 = system: KM12
# RPMI-8226 = system: RPMI-8226
# SF-268 = system: SF-268
# NCI-H23 = system: NCI-H23
# HOP-62 = system: HOP-62
# K562 = system: K562
# UACC-257 = system: UACC-257
# 786-0 = system: 786-0
# SW-620 = system: SW-620
# OVCAR-4 = system: OVCAR-4
# OVCAR-3 = system: OVCAR-3
# SF-295 = system: SF-295
# OVCAR-8 = system: OVCAR-8
# CCRF-CEM = system: CCRF-CEM
# A549 = system: A549
# HT-29 = system: HT-29
# SR = system: SR
# SNB-19 = system: SNB-19
# LXFL 529 = system: LXFL 529
# SN12C = system: SN12C
# Malme-3M = system: Malme-3M
# NCI-H460 = system: NCI-H460
# SF-539 = system: SF-539
# HL-60 = system: HL-60
# SK-MEL-2 = system: SK-MEL-2
# HCT-116 = system: HCT-116
# NCI-H226 = system: NCI-H226
# SK-OV-3 = system: SK-OV-3
# ACHN = system: ACHN
# M19-MEL = system: M19-MEL
# U-251 = system: U-251
# HCT-15 = system: HCT-15
# HOP-92 = system: HOP-92
# TK-10 = system: TK-10
# CAKI-1 = system: CAKI-1
# MOLT-4 = system: MOLT-4
# DMS-114 = system: DMS-114
# HOP-18 = system: HOP-18
# LOX IMVI = system: LOX IMVI
# DLD-1 = system: DLD-1
# SK-MEL-5 = system: SK-MEL-5
# DMS-273 = system: DMS-273
# RXF 393 = system: RXF 393
# IGROV-1 = system: IGROV-1
# HCC 2998 = system: HCC 2998
# A498 = system: A498
# MCF7 = system: MCF7
# DU-145 = system: DU-145
# EKVX = system: EKVX
smiles,measurement,setting,value
CN(C(=O)c1ccc(Cl)cc1)C(=S)N1CCN(c2ccccn2)CC1,GI50,UACC-62,> 100 µM (inactive)
same,GI50,COLO 205,> 100 µM (inactive)
same,GI50,NCI-H522,> 100 µM (inactive)
same,GI50,M14,> 100 µM (inactive)
same,GI50,SNB-78,> 100 µM (inactive)
same,GI50,OVCAR-5,> 100 µM (inactive)
same,GI50,KM-20L2,> 100 µM (inactive)
same,GI50,SNB-75,> 100 µM (inactive)
same,GI50,SK-MEL-28,> 100 µM (inactive)
same,GI50,UO-31,> 100 µM (inactive)
same,GI50,KM12,> 100 µM (inactive)
same,GI50,RPMI-8226,> 100 µM (inactive)
same,GI50,SF-268,> 100 µM (inactive)
same,GI50,NCI-H23,> 100 µM (inactive)
same,GI50,HOP-62,> 100 µM (inactive)
same,GI50,K562,> 100 µM (inactive)
same,GI50,UACC-257,> 100 µM (inactive)
same,GI50,786-0,> 100 µM (inactive)
same,GI50,SW-620,> 100 µM (inactive)
same,GI50,OVCAR-4,> 100 µM (inactive)
same,GI50,OVCAR-3,> 100 µM (inactive)
same,GI50,SF-295,> 100 µM (inactive)
same,GI50,OVCAR-8,> 100 µM (inactive)
same,GI50,CCRF-CEM,> 100 µM (inactive)
same,GI50,A549,> 100 µM (inactive)
same,GI50,HT-29,> 100 µM (inactive)
same,GI50,SR,> 100 µM (inactive)
same,GI50,SNB-19,> 100 µM (inactive)
same,GI50,LXFL 529,> 100 µM (inactive)
same,GI50,SN12C,> 100 µM (inactive)
same,GI50,Malme-3M,> 100 µM (inactive)
same,GI50,NCI-H460,> 100 µM (inactive)
same,GI50,SF-539,> 100 µM (inactive)
same,GI50,HL-60,> 100 µM (inactive)
same,GI50,SK-MEL-2,> 100 µM (inactive)
same,GI50,HCT-116,> 100 µM (inactive)
same,GI50,NCI-H226,37.2 µM (inactive)
same,GI50,SK-OV-3,> 100 µM (inactive)
same,GI50,ACHN,> 100 µM (inactive)
same,GI50,M19-MEL,> 100 µM (inactive)
same,GI50,U-251,> 100 µM (inactive)
same,GI50,HCT-15,> 100 µM
same,GI50,HOP-92,35.6 µM (inactive)
same,GI50,TK-10,> 100 µM (inactive)
same,GI50,CAKI-1,> 100 µM (inactive)
same,GI50,MOLT-4,> 100 µM (inactive)
same,GI50,DMS-114,69.8 µM (inactive)
same,GI50,HOP-18,> 100 µM (inactive)
same,GI50,LOX IMVI,> 100 µM (inactive)
same,GI50,DLD-1,> 100 µM (inactive)
same,GI50,SK-MEL-5,> 100 µM (inactive)
same,GI50,DMS-273,> 100 µM (inactive)
same,GI50,RXF 393,> 100 µM (inactive)
same,GI50,IGROV-1,> 100 µM (inactive)
COc1ccc(/C=N/NC(=O)c2sc(=S)n(-c3ccccc3)c2N)cc1,GI50,UACC-62,89.1 µM (inactive)
same,GI50,COLO 205,> 100 µM (inactive)
same,GI50,HCC 2998,73.5 µM (inactive)
same,GI50,NCI-H522,42.1 µM (inactive)
same,GI50,OVCAR-5,> 100 µM (inactive)
same,GI50,SNB-75,1.6 µM (inactive)
same,GI50,SK-MEL-28,33.1 µM (inactive)
same,GI50,UO-31,> 100 µM (inactive)
same,GI50,KM12,7.85 µM (inactive)
same,GI50,SF-268,21.4 µM (inactive)
same,GI50,NCI-H23,> 100 µM (inactive)
same,GI50,HOP-62,22.2 µM (inactive)
same,GI50,K562,1.48 µM (inactive)
same,GI50,UACC-257,> 100 µM (inactive)
same,GI50,SW-620,> 100 µM (inactive)
same,GI50,OVCAR-3,83.9 µM (inactive)
same,GI50,SF-295,19.8 µM (inactive)
same,GI50,OVCAR-8,44.7 µM (inactive)
same,GI50,CCRF-CEM,> 100 µM (inactive)
same,GI50,A549,> 100 µM (inactive)
same,GI50,HT-29,73.8 µM (inactive)
same,GI50,SR,> 100 µM (inactive)
same,GI50,SNB-19,28.1 µM (inactive)
same,GI50,LXFL 529,51.2 µM (inactive)
same,GI50,NCI-H460,6.04 µM (inactive)
same,GI50,SF-539,6.92 µM (inactive)
same,GI50,HL-60,> 100 µM (inactive)
same,GI50,HCT-116,91.6 µM (inactive)
same,GI50,NCI-H226,> 100 µM (inactive)
same,GI50,SK-OV-3,11.2 µM (inactive)
same,GI50,ACHN,20.7 µM (inactive)
same,GI50,M19-MEL,> 100 µM (inactive)
same,GI50,U-251,66.2 µM (inactive)
same,GI50,HOP-92,9.51 µM (inactive)
same,GI50,TK-10,7.14 µM (inactive)
same,GI50,MOLT-4,> 100 µM (inactive)
same,GI50,HOP-18,39.4 µM (inactive)
same,GI50,DLD-1,> 100 µM (inactive)
same,GI50,SK-MEL-5,71.4 µM (inactive)
same,GI50,IGROV-1,> 100 µM (inactive)
COc1ccc2c(=O)oc3c(OC)cc(CCN(C)C)c4c(=O)oc1c2c34,GI50,UACC-62,17.9 µM (inactive)
same,GI50,COLO 205,4.94 µM (inactive)
same,GI50,HCC 2998,12.4 µM (inactive)
same,GI50,NCI-H522,12.5 µM (inactive)
same,GI50,M14,17.4 µM (inactive)
same,GI50,SNB-78,14.3 µM (inactive)
same,GI50,OVCAR-5,17.9 µM (inactive)
same,GI50,KM-20L2,14.9 µM (inactive)
same,GI50,A498,20.5 µM (inactive)
same,GI50,SF-268,12.9 µM (inactive)
same,GI50,NCI-H23,17.8 µM (inactive)
same,GI50,HOP-62,14.2 µM (inactive)
same,GI50,K562,2.56 µM (inactive)
same,GI50,OVCAR-3,16.1 µM (inactive)
same,GI50,OVCAR-8,10.4 µM (inactive)
same,GI50,CCRF-CEM,1.49 µM (inactive)
same,GI50,SNB-19,14.3 µM (inactive)
same,GI50,LXFL 529,13.3 µM (inactive)
same,GI50,SN12C,13.8 µM (inactive)
same,GI50,Malme-3M,14.5 µM (inactive)
same,GI50,SK-MEL-2,17.7 µM (inactive)
same,GI50,NCI-H226,17.9 µM (inactive)
same,GI50,M19-MEL,14.5 µM (inactive)
same,GI50,U-251,14.4 µM (inactive)
same,GI50,MOLT-4,11.5 µM (inactive)
same,GI50,DMS-114,12.1 µM (inactive)
same,GI50,HOP-18,14.4 µM (inactive)
same,GI50,DLD-1,22.8 µM (inactive)
same,GI50,SK-MEL-5,12.3 µM (inactive)
same,GI50,DMS-273,15.6 µM (inactive)
O=C1C=C[C@@]23C[C@@H](NC4=C2C2=NCCc5c[nH]c(c52)C4=O)SC3=C1,GI50,SNB-75,19.8 µM (inactive)
same,GI50,NCI-H23,3.49 µM (inactive)
same,GI50,K562,4.74 µM (inactive)
same,GI50,SW-620,3.15 µM (inactive)
same,GI50,A549,14.6 µM (inactive)
same,GI50,MCF7,3.82 µM (inactive)
same,GI50,M19-MEL,2.03 µM (inactive)
same,GI50,DU-145,18.2 µM (inactive)
same,GI50,HOP-18,16.7 µM (inactive)
CC(C)C(NC(=O)OC(C)(C)C)C(=O)N(C)C(Cc1ccccc1)C(=O)N(C)C(C(=O)OCc1ccccc1)C(C)C (stereo not drawn) (Boc-Val-[NMeF]-[NMeV]-OBn; configuration not given here),GI50,UACC-62,81.8 µM (inactive)
same,GI50,COLO 205,37.7 µM (inactive) and 44.2 µM (inactive)
same,GI50,HCC 2998,> 100 µM (inactive)
same,GI50,NCI-H522,12.2 µM (inactive) and 22.8 µM (inactive)
same,GI50,M14,59.3 µM (inactive) and 94.4 µM (inactive)
same,GI50,SK-MEL-28,> 100 µM (inactive)
same,GI50,UO-31,85.3 µM (inactive) and 53.1 µM (inactive)
same,GI50,SF-268,> 100 µM (inactive)
same,GI50,NCI-H23,37.1 µM (inactive) and 68.5 µM (inactive)
same,GI50,HOP-62,85.9 µM (inactive)
same,GI50,786-0,> 100 µM (inactive)
same,GI50,SW-620,75.2 µM (inactive)
same,GI50,SF-295,17.6 µM (inactive) and 34.6 µM (inactive)
same,GI50,OVCAR-8,74.6 µM (inactive) and 70.5 µM (inactive)
same,GI50,A549,39.5 µM (inactive) and 46.8 µM (inactive)
same,GI50,EKVX,> 100 µM (inactive) and 62.1 µM (inactive)
same,GI50,SR,27.9 µM (inactive) and 22.6 µM (inactive)
same,GI50,Malme-3M,> 100 µM (inactive)
same,GI50,NCI-H460,39 µM (inactive) and 41 µM (inactive)
same,GI50,HL-60,33.4 µM (inactive) and 19.5 µM (inactive)
same,GI50,HCT-116,40 µM (inactive) and 28.4 µM (inactive)
same,GI50,NCI-H226,> 100 µM (inactive) and 73.5 µM (inactive)
same,GI50,SK-OV-3,> 100 µM (inactive)
same,GI50,U-251,82.2 µM (inactive) and 43.8 µM (inactive)
same,GI50,HCT-15,67.1 µM and 79.3 µM
same,GI50,TK-10,> 100 µM (inactive)
same,GI50,DMS-114,29.4 µM (inactive) and 30.5 µM (inactive)
same,GI50,SK-MEL-5,15.4 µM (inactive)
same,GI50,DMS-273,34.1 µM (inactive) and 33.8 µM (inactive)
same,GI50,IGROV-1,91.2 µM (inactive)
